19 compounds from patent US20260265233A1, “BENZOTHIOPHENE DERIVATIVES AS RXFP1 AGONISTS” (BRISTOL-MYERS SQUIBB COMPANY, priority 2021, published 2026) can be followed below.

As a reminder, the EC50 is the midpoint of the concentration-response curve. Read a low EC50 as a more potent agent.

The target of this assay is T1, human RXFP1 (Homo sapiens, UniProt Q9HBX9).
T1 construct: expressed in transfected cells
T1 sequence (Q9HBX9 1-757): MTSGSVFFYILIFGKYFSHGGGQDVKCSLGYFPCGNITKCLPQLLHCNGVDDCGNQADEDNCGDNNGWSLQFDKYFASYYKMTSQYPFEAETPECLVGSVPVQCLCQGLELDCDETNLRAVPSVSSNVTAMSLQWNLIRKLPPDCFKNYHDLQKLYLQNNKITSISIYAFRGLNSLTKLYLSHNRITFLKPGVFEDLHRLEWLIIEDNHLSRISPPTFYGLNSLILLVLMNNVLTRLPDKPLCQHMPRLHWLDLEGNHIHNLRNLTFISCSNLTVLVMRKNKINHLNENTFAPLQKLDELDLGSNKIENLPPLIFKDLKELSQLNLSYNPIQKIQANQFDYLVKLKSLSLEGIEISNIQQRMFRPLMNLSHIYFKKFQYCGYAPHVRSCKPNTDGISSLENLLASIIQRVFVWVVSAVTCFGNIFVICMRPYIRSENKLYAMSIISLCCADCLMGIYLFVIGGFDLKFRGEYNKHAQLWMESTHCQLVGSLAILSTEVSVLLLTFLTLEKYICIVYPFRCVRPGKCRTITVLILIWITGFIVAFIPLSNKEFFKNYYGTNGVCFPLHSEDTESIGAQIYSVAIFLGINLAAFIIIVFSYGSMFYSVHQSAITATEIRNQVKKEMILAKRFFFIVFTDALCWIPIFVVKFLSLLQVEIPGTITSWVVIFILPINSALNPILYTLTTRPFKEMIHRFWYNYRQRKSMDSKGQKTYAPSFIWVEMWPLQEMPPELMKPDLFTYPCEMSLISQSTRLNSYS
The assay is described as follows: hRXFP1 HEK293 cAMP assay (HTRF). The assay is classed as cell-based. The conditions noted are these: HEK293 cells stably expressing human RXFP1; 30 min at rt; intracellular cAMP by HTRF. The method, boiled down:
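Agonism is measured as cAMP by HTRF, quantified from a standard curve via the 665/590 nm ratio and fitted with a four-parameter logistic equation. Compounds (0.010 nM to 50 μM final, 2% DMSO) were applied for 30 min at rt to human RXFP1-expressing HEK293 cells in assay buffer containing 0.5 mM IBMX.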
(In general: Cyclic AMP is a second messenger, typically raised through Gs and lowered through Gi signalling.)
The compound `COc1ccc(C2=NOC3CN(CC(C)(C)O)CC23)cc1C(=O)Nc1c(C(=O)Nc2ccc(F)c(C(F)(F)F)c2)sc2cc(C(F)(F)F)ccc12` (single isomer, unassigned) [Example 54, N-(4-fluoro-3-(trifluoromethyl)phenyl)-3-(5-(5-(2-hydroxy-2-methylpropyl)-3a, 5,6,6a-tetrahydro-4H-pyrrolo[3,4-d]isoxazol-3-yl)-2-methoxybenzamido)-6-(trifluoromethyl)benzo[b]thiophene-2-carboxamide] came in with an EC50 of 306 nM.

`COc1ccc(C#CC(C)(C)O)cc1C(=O)Nc1c(C(=O)Nc2ccc(F)c(C(F)(F)F)c2)sc2cc(C(F)(F)F)ccc12` [Example 124, N-(4-fluoro-3-(trifluoromethyl)phenyl)-3-(5-(3-hydroxy-3-methylbut-1-yn-1-yl)-2-methoxybenz-amido)-6-(trifluoromethyl) benzo[b] thiophene-2-carboxamide] showed an EC50 of 560 nM.

`COc1ccc(-c2cc(C(=O)O)ccc2F)cc1C(=O)Nc1c(C(=O)Nc2ccc(F)c(C(F)(F)F)c2)sc2nc(C)ccc12` [Example 288, 6-fluoro-3′-[(2-{[4-fluoro-3-(trifluoromethyl)phenyl]carbamoyl}-6-methylthieno[2,3-b]pyridin-3-yl)carbamoyl]-4′-methoxy-[1,1′-biphenyl]-3-carboxylic acid]: a half-maximal effect (EC50) was put at 4260 nM.

Compound `COc1ccc(CNC(c2ccc(F)c(-c3ccc(OC)c(C(=O)Nc4c(C(=O)Nc5ccc(F)c(C(F)(F)F)c5)sc5cc(C(F)(F)F)ccc45)c3)c2)C(F)(F)F)cc1OC` (single isomer, unassigned) [Example 114, 3-(5′-(1-((3,4-dimethoxybenzyl)amino)-2,2,2-trifluoroethyl)-2′-fluoro-4-methoxy-[1,1′-biphenyl]-3-carboxamido)-N-(4-fluoro-3-(trifluoromethyl)phenyl)-6-(trifluoromethyl) benzo[b] thiophene-2-carboxamide] had an EC50 of 22.5 nM.

Compound `COc1ccc(C(=O)N(C)C)cc1C(=O)Nc1c(C(=O)Nc2ccc(F)c(C(F)(F)F)c2)sc2cc(C(F)(F)F)ccc12` [Example 220, N3-(2-((4-fluoro-3-(trifluoromethyl)phenyl)carbamoyl)-6-(trifluoromethyl)benzo[b]thiophen-3-yl)-4-methoxy-N1,N1-dimethyl-isophthalamide] returned an EC50 of 2530 nM.

Regarding `COc1ccc(C(=O)N2CC3(C2)CS(=O)(=O)C3)cc1C(=O)Nc1c(C(=O)Nc2ccc(F)c(C(F)(F)F)c2)sc2cc(C(F)(F)F)ccc12` [Example 130, 3-(5-(2,2-dioxido-2-thia-6-azaspiro[3.3]heptane-6-carbonyl)-2-methoxy-benzamido)-N-(4-fluoro-3-(trifluoromethyl)phenyl)-6-(trifluoromethyl) benzo[b] thiophene-2-carboxamide], the response was half-maximal at 279 nM (EC50).

As for `COc1cc(F)c(C(=O)N2CC3(COC3)C2)cc1C(=O)Nc1c(C(=O)Nc2ccc(F)c(C(F)(F)F)c2)sc2cc(C(F)(F)F)ccc12` [Example 185, 3-(4-fluoro-2-methoxy-5-(2-oxa-6-azaspiro[3.3]heptane-6-carbonyl)benzamido)-N-(4-fluoro-3-(trifluoromethyl)phenyl)-6-(trifluoromethyl) benzo[b] thiophene-2-carboxamide], the half-maximal effective concentration (EC50) was found to be 736 nM.

`COc1ncc(C(=O)N2CC(O)C2)cc1C(=O)Nc1c(C(=O)Nc2ccc(F)c(C(F)(F)F)c2)sc2cc(C(F)(F)F)ccc12` [Example 173, N-(2-((4-fluoro-3-(trifluoromethyl)phenyl)carbamoyl)-6-(trifluoromethyl)benzo[b]thiophen-3-yl)-5-(3-hydroxyazetidine-1-carbonyl)-2-methoxy-nicotinamide] had an EC50 of 179 nM.

In turn, `COc1ccc(C2CCCN(CCO)CC2)cc1C(=O)Nc1c(C(=O)Nc2ccc(F)c(C(F)(F)F)c2)sc2cc(C(F)(F)F)ccc12` (single isomer, unassigned) [Example 69, N-(4-fluoro-3-(trifluoromethyl)phenyl)-3-(5-(1-(2-hydroxyethyl)azepan-4-yl)-2-methoxy-benzamido)-6-(trifluoromethyl) benzo[b] thiophene-2-carboxamide] showed an EC50 of 760 nM.

`COc1ccc(C2CCCC(NC3COC3)C2)cc1C(=O)Nc1c(C(=O)Nc2ccc(F)c(C(F)(F)F)c2)sc2cc(C(F)(F)F)ccc12` (single isomer, unassigned) [Example 60, N-(4-fluoro-3-(trifluoromethyl)phenyl)-3-(2-methoxy-5-(3-(oxetan-3-ylamino)cyclohexyl)benzamido)-6-(trifluoromethyl) benzo[b] thiophene-2-carboxamide] yielded an EC50 of 743 nM.

`CNC(=O)CN1CCCC(c2ccc(OC)c(C(=O)Nc3c(C(=O)Nc4ccc(F)c(C(F)(F)F)c4)sc4cc(C(F)(F)F)ccc34)c2)C1` (stereo not shown) [Example 99, N-(4-fluoro-3-(trifluoromethyl)phenyl)-3-(2-methoxy-5-(1-(2-(methylamino)-2-oxoethyl)piperidin-3-yl)benzamido)-6-(trifluoromethyl) benzo[b] thiophene-2-carboxamide] gave an EC50 of 1370 nM.

Compound `COc1ccc(C2CCCNC2)cc1C(=O)Nc1c(C(=O)Nc2ccc(F)c(C(F)(F)F)c2)sc2cc(C(F)(F)F)ccc12` (single isomer, unassigned) [Example 77, N-(4-fluoro-3-(trifluoromethyl)phenyl)-3-(2-methoxy-5-(piperidin-3-yl)benzamido)-6-(trifluoromethyl) benzo[b] thiophene-2-carboxamide] came in with an EC50 of 469 nM.

The compound `COc1ccc(-c2cc(CNC(=O)C3CCC3)ccc2F)cc1C(=O)Nc1c(C(=O)Nc2ccc(F)c(C(F)(F)F)c2)sc2cc(C(F)(F)F)ccc12` [Example 18, 3-(5′-(cyclobutanecarboxamidomethyl)-2′-fluoro-4-methoxy-[1,1′-biphenyl]-3-carboxamido)-N-(4-fluoro-3-(trifluoromethyl)phenyl)-6-(trifluoromethyl)benzo[b]thiophene-2-carboxamide] yielded an EC50 of 311 nM.

`COc1ccc(C2CCN(C(=O)C(C)(C)CO)C2)cc1C(=O)Nc1c(C(=O)Nc2ccc(F)c(C(F)(F)F)c2)sc2cc(C(F)(F)F)ccc12` (single isomer, unassigned) [Example 150, N-(4-fluoro-3-(trifluoromethyl)phenyl)-3-(5-(1-(3-hydroxy-2,2-dimethyl-propanoyl)pyrrolidin-3-yl)-2-methoxy-benzamido)-6-(trifluoromethyl) benzo[b] thiophene-2-carboxamide] had a concentration giving a half-maximal response (EC50) of 228 nM.

As to `COc1ccc(-n2cc(C(C)(C)O)cn2)cc1C(=O)Nc1c(C(=O)Nc2ccc(F)c(C(F)(F)F)c2)sc2cc(C(F)(F)F)ccc12` [Example 3, N-(4-fluoro-3-(trifluoromethyl)phenyl)-3-(5-(4-(2-hydroxypropan-2-yl)-1H-pyrazol-1-yl)-2-methoxybenzamido)-6-(trifluoromethyl) benzo[b]thiophene-2-carboxamide], the response was half-maximal at 350 nM (EC50).

Take `COc1ccc(C2=NCC3(CCCCC3)O2)cc1C(=O)Nc1c(C(=O)Nc2ccc(F)c(C(F)(F)F)c2)sc2cc(C(F)(F)F)ccc12` [Example 58, N-(4-fluoro-3-(trifluoromethyl)phenyl)-3-(2-methoxy-5-(1-oxa-3-azaspiro[4.5]dec-2-en-2-yl)benzamido)-6-(trifluoromethyl)benzo[b]thiophene-2-carboxamide]: the EC50 stood at 612 nM.

The compound `COc1ccc(C2CCN(C(=O)CO)C2)cc1C(=O)Nc1c(C(=O)Nc2ccc(F)c(C(F)(F)F)c2)sc2cc(C(F)(F)F)ccc12` (stereo not shown) [Example 152, N-(4-fluoro-3-(trifluoromethyl)phenyl)-3-(5-(1-(2-hydroxyacetyl)pyrrolidin-3-yl)-2-methoxy-benzamido)-6-(trifluoromethyl) benzo[b] thiophene-2-carboxamide] showed an EC50 of 613 nM.

Regarding `COc1ccc(C2CCCN(CCO)C2)cc1C(=O)Nc1c(C(=O)Nc2ccc(F)c(C(F)(F)F)c2)sc2cc(C(F)(F)F)ccc12` (stereo not shown) [Example 85, N-(4-fluoro-3-(trifluoromethyl)phenyl)-3-(5-(1-(2-hydroxyethyl)piperidin-3-yl)-2-methoxy-benzamido)-6-(trifluoromethyl) benzo[b] thiophene-2-carboxamide], the EC50 turned out to be 1110 nM.

`COc1ccc(C2CC3(C2)CN(S(C)(=O)=O)C3)cc1C(=O)Nc1c(C(=O)Nc2ccc(F)c(C(F)(F)F)c2)sc2cc(C(F)(F)F)ccc12` [Example 204, N-(4-fluoro-3-(trifluoromethyl)phenyl)-3-(2-methoxy-5-(2-(methylsulfonyl)-2-azaspiro[3.3]heptan-6-yl)benzamido)-6-(trifluoromethyl) benzo[b] thiophene-2-carboxamide] returned an EC50 of 1170 nM.
